# According to patent publication EP4692062A1, “NOVEL AMIDE-BASED COMPOUND AND COMPOSITION COMPRISING SAME” (Amorepacific Corporation, priority 2023, dated 2024):
# Columns and labels:
# Format in all cases: biochemical
# [1] = molecular target: T1, MMP-2 (Homo sapiens, UniProt P08253); experiment: MMP2 Inhibitor Screening Assay Kit (ab139446), colorimetric thiopeptide substrate, OD412; settings: remaining enzyme activity, untreated group = 100%; compound at 50 nM; n=2
# T1 construct: purchased Abchem (so in the source)
# T1 sequence (P08253 110-660): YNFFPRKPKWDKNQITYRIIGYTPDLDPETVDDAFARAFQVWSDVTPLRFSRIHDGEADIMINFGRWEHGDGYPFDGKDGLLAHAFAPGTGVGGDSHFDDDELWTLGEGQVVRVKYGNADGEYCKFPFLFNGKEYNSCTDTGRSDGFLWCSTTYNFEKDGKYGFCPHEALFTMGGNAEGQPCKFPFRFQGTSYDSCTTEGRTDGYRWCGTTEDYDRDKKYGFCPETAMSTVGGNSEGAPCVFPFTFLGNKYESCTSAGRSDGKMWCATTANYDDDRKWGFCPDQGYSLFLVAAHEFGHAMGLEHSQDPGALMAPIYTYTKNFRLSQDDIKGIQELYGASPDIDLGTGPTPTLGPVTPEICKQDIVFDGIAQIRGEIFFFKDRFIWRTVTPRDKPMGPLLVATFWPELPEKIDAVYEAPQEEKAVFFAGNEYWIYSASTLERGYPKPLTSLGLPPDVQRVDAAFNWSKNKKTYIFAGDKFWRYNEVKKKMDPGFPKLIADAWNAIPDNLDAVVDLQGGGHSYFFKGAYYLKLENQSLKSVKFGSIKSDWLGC
# Method: Enzyme activity (%) at the same concentration was compared with treatment with 0.5 µM MMP-1 activity and 50 nM MMP-2 and MMP-9 activity (n=2). Here, enzyme activity (%) refers to the enzyme activity (%) of the experimental group when the untreated group is considered to have 100% enzyme activity. To evaluate the effect of the new compound on the enzyme activity, the color change was measured by following the provided protocol using a kit sold by Abchem as follows. […] Therefore, the change in OD412 level (OD value) per minute was measured and the value was obtained according to the enzyme activity calculation formula below. […] (ε=13,600 M^-1cm^-1 above pH 6.0) New compound enzyme activity(%) = (Vnew compound/Vuntreated group)*100 [formula] V = change in OD value per minute
# [2] = molecular target: T2, MMP-9 (Homo sapiens, UniProt P14780); experiment: MMP9 Inhibitor Screening Assay Kit (ab139448), colorimetric thiopeptide substrate, OD412; settings: compound at 50 nM; for remaining activity at 0.05 µM: remaining enzyme activity, untreated group = 100%, n=2
# T2 construct: purchased Abchem (so in the source)
# Method: Enzyme activity (%) at the same concentration was compared with treatment with 0.5 µM MMP-1 activity and 50 nM MMP-2 and MMP-9 activity (n=2). Here, enzyme activity (%) refers to the enzyme activity (%) of the experimental group when the untreated group is considered to have 100% enzyme activity. To evaluate the effect of the new compound on the enzyme activity, the color change was measured by following the provided protocol using a kit sold by Abchem as follows. Enzyme activity was obtained by comparing absorbance per minute with the untreated group. • MMP1 Inhibitor Screening Assay Kit (ab139443) • MMP2 Inhibitor Screening Assay Kit (ab139446) • MMP9 Inhibitor Screening Assay Kit (ab139448) As MMP activity increases, the substrate is decomposed and the OD412 level increases. Therefore, the change in OD412 level (OD value) per minute was measured and the value was obtained according to the enzyme activity calculation formula below. Here, OD412 means optical density or absorbance at 412 nm. • Thiopeptide (Ac-PLG-[2-mercapto-4-methyl-pentanoyl]-LG-OC2H5) as a chromogenic substrate. • The MMP cleavage site peptide bond was replaced by the thioester bond of the thiopeptide. • Hydrolysis of this bond by MMP generates a sulfhydryl group, which reacts with DTNB [5,5'-dithiobis(2-nitrobenzoic acid), Ellman's reagent] to form 2-nitro-5-thiobenzoic acid. , which can be measured by its absorbance at 412 nm. (ε=13,600 M^-1cm^-1 above pH 6.0) New compound enzyme activity(%) = (Vnew compound/Vuntreated group)*100 [formula] V = change in OD value per minute
# [3] = molecular target: T3, MMP-1 (Homo sapiens, UniProt P03956); experiment: MMP1 Inhibitor Screening Assay Kit (ab139443), colorimetric thiopeptide substrate, OD412; settings: for remaining activity at 0.5 µM / remaining activity at 10 µM: remaining enzyme activity; for remaining activity at 0.5 µM: untreated group = 100%, compound at 0.5 uM, n=2; for inhibition at 10 µM / remaining activity at 10 µM: T-05~20 at 10 uM; for inhibition at 10 µM: read-out: MMP-1 (%) (inhibitory efficacy, high concentration); for remaining activity at 10 µM: read-out: MMP-1 (%) (enzyme activity, high concentration)
# T3 construct: purchased Abchem (so in the source)
# T3 sequence (P03956 100-269 limits assumed): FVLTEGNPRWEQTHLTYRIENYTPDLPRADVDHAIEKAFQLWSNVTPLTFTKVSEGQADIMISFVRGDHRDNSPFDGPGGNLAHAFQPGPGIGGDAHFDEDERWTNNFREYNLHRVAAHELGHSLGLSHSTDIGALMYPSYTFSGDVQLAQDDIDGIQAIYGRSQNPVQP
# Method: Enzyme activity (%) at the same concentration was compared with treatment with 0.5 µM MMP-1 activity and 50 nM MMP-2 and MMP-9 activity (n=2). Here, enzyme activity (%) refers to the enzyme activity (%) of the experimental group when the untreated group is considered to have 100% enzyme activity.
# To evaluate the effect of the new compound on the enzyme activity, the color change was measured by following the provided protocol using a kit sold by Abchem as follows.
# As MMP activity increases, the substrate is decomposed and the OD412 level increases. Therefore, the change in OD412 level (OD value) per minute was measured and the value was obtained according to the enzyme activity calculation formula below. […] (ε=13,600 M^-1cm^-1 above pH 6.0)
# New compound enzyme activity(%) = (Vnew compound/Vuntreated group)*100 [formula] V = change in OD value per minute
# [4] = molecular target: T1, MMP-2; experiment: MMP2 Inhibitor Screening Assay Kit (ab139446), colorimetric thiopeptide substrate, OD412; settings: T-05~20 at 10 uM; for inhibition at 10 µM: read-out: MMP-2 (%) (inhibitory efficacy, high concentration); for remaining activity at 10 µM: remaining enzyme activity, read-out: MMP-2 (%) (enzyme activity, high concentration)
# T2 sequence (P14780 94-707): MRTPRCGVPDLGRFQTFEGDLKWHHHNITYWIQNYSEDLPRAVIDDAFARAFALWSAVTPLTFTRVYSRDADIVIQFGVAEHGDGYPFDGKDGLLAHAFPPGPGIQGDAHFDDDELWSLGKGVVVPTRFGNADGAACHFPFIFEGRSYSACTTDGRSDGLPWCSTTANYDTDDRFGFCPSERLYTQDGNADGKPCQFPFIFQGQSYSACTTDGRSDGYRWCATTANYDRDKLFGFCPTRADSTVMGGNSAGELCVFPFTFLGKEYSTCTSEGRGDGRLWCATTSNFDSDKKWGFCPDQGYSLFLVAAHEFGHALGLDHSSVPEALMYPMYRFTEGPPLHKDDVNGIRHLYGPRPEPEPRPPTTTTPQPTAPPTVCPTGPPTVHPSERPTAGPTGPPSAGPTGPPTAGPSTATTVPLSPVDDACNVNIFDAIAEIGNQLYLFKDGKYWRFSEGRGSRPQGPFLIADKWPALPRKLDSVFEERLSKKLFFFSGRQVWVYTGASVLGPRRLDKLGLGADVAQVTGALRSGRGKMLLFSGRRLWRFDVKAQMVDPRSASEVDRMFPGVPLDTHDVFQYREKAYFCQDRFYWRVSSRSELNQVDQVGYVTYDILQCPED
SMILES,remaining activity at 0.05 µM [1] [%],remaining activity at 0.05 µM [2] [%],remaining activity at 0.5 µM [3] [%],inhibition at 10 µM [4] [%],remaining activity at 10 µM [4] [%],inhibition at 10 µM [3] [%],remaining activity at 10 µM [3] [%],"inhibition at 0.05 µM ([2]; inhibition, read-out: MMP-9 (%) at 50 nM (inhibitory activity)) [%]"
"O=C(NO)C1CCCCN1S(=O)(=O)c1ccccc1 (centres unmarked) [T-01, N-hydroxy-1-(phenylsulfonyl)piperidine-2-carboxamide]",81.6,79.1,34.2,–,–,–,–,–
"O=C(NO)C1CCCCN1S(=O)(=O)c1ccc(-c2ccccc2)cc1 (centres unmarked) [T-02, 1-([1,1'-biphenyl]-4-ylsulfonyl)-N-hydroxypiperidine-2-carboxamide]",–,41.9,–,–,–,–,–,–
"CCCCOc1ccc(S(=O)(=O)N2CCCCC2C(=O)NO)cc1 (centres unmarked) [T-04, 1-((4-butoxyphenyl)sulfonyl)-N-hydroxypiperidine-2-carboxamide]",–,0,–,–,–,–,–,–
"Cc1cc(C)c(S(=O)(=O)N2CCCCC2C(=O)NO)c(C)c1 (centres unmarked) [T-05, N-hydroxy-1-(mesitylsulfonyl)piperidine-2-carboxamide]",100,100,100,15.8,84.2,8.3,91.7,–
"CC(C)(C)c1ccc(S(=O)(=O)NC(Cc2ccccc2)C(=O)NO)cc1 (centres unmarked) [T-08, 2-((4-(tert-butyl)phenyl)sulfonamido)-N-hydroxy-3-phenylpropanamide]",100,100,100,0,100,12.8,87.2,–
"Cc1cc(C)c(S(=O)(=O)NC(Cc2ccccc2)C(=O)NO)c(C)c1 (centres unmarked) [T-10, N-hydroxy-3-phenyl-2-((2,4,6-trimethylphenyl)sulfonamido)propanamide]",95.6,100,100,15.5,84.5,0,100,–
"CCCCOc1ccc(S(=O)(=O)NC(CC(C)C)C(=O)NO)cc1 (centres unmarked) [T-14, 2-((4-butoxyphenyl)sulfonamido)-N-hydroxy-4-methylpentanamide]",0,73.5,100,–,–,–,–,26.5
"CCCCOc1ccc(S(=O)(=O)N2CCCC2C(=O)NO)cc1 (centres unmarked) [T-29, 1-((4-butoxyphenyl)sulfonyl)-N-hydroxypyrrolidine-2-carboxamide]",18.9,50.2,100,–,–,–,–,–

# Further lines, with some results ahead:
remaining activity at 0.05 µM [1] [%],remaining activity at 0.05 µM [2] [%],remaining activity at 0.5 µM [3] [%],inhibition at 10 µM [4] [%],remaining activity at 10 µM [4] [%],inhibition at 10 µM [3] [%],remaining activity at 10 µM [3] [%],SMILES,"inhibition at 0.05 µM ([2]; inhibition, read-out: MMP-9 (%) at 50 nM (inhibitory activity)) [%]"
–,70.6,–,–,–,–,–,"CC(C)CC(NS(=O)(=O)c1ccc(-c2ccccc2)cc1)C(=O)NO (centres unmarked) [T-12, 2-([1,1'-biphenyl]-4-sulfonamido)-N-hydroxy-4-methylpentanamide]",–
81.1,100,9.2,–,–,–,–,"O=C(NO)C1CCCCN1S(=O)(=O)c1ccc(F)cc1 (centres unmarked) [T-21, 1-((4-fluorophenyl)sulfonyl)-N-hydroxypiperidine-2-carboxamide]",–
57.7,99,78.4,–,–,–,–,"CCCc1ccc(S(=O)(=O)N2CCCCC2C(=O)NO)cc1 (centres unmarked) [T-24, N-hydroxy-1-((4-propylphenyl)sulfonyl)piperidine-2-carboxamide]",–
–,19.9,–,–,–,–,–,"CC(=NO)c1ccc(S(=O)(=O)N2CCCCC2C(=O)NO)cc1 (centres unmarked) [T-35, N-hydroxy-1-((4-(1-(hydroxyimino)ethyl)phenyl)sulfonyl)piperidine-2-carboxamide]",–
100,97.4,98.2,–,–,–,–,"CC(C)CC(NS(=O)(=O)c1ccccc1)C(=O)NO (centres unmarked) [T-36, N-hydroxy-4-methyl-2-(phenylsulfonamido)pentanamide]",–
100,100,100,–,–,–,–,"CC(=O)Nc1ccc(S(=O)(=O)N2CCCC2C(=O)NO)cc1 (centres unmarked) [T-40, 1-((4-acetamidophenyl)sulfonyl)-N-hydroxypyrrolidine-2-carboxamide]",–
